Measured values published in patent US11780826B2 (Amgen Inc., priority 2017, dated 2023).

system: Bovine cardiac myofibrils; experiment: In vitro model of dose-dependent myofibril ATPase modulation (AC1.4, pyruvate kinase/lactate dehydrogenase-coupled ATPase assay at pCa25); format: biochemical; settings: concentration at which ATPase activity was 1.4-fold higher than the bottom of the dose curve, mean of a minimum of two independent tests
Summary of the method: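 Detergent-skinned bovine cardiac myofibrils (typically 0.25-1.0 mg/ml) in Ca-buffered (EGTA/CaCl2) PK/LDH-coupled ATPase assay: 12 mM K-PIPES pH 6.80, 2 mM MgCl2, 1 mM ATP, 1 mM DTT, 0.5 mM NADH, 1.5 mM PEP. Hydrolysis followed at 340 nm; dose response fit to 4-parameter equation; AC1.4 is mean of ≥2 tests.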

Point of comparison: `O=C(NCc1ccc(C(F)(F)F)cc1)[C@H]1CCCN1C(=O)[C@H]1CCCN(S(=O)(=O)N2CCC2Cc2ccccc2)C1` (stereo partly drawn) [Example 720, (2R)-1-((3S)-1-((2-benzylazetidin-1-yl)sulfonyl)piperidine-3-carbonyl)-N-(4-(trifluoromethyl)benzyl)pyrrolidine-2-carboxamide], AC1.4 6.27 µM. Against it:
- N#Cc1cccc(C(=O)N2CCC[C@@H]2C(=O)N[C@@H](c2ccc(C(F)(F)F)cc2F)C2CC2)c1 [Example 701, 1-(3-cyanobenzoyl)-N-((R)-cyclopropyl(2-fluoro-4-(trifluoromethyl)phenyl)methyl)-D-prolinamide] — within 1.5-fold, 5.643 µM
- Cc1ccnc(C(=O)N2[C@@H](C(=O)N[C@@H](c3cc(F)c(Cl)cc3F)C3CC3)C[C@H]3C[C@H]32)c1 [Example 702, (1R,3R,5R)-N-((R)-(4-chloro-2,5-difluorophenyl)(cyclopropyl)methyl)-2-((4-methyl-2-pyridinyl)carbonyl)-2-azabicyclo[3.1.0]hexane-3-carboxamide] — within 1.5-fold, 5.6535 µM
- O=C(NCc1ccc(C(F)(F)F)cc1)[C@H]1CCCN1C(=O)[C@H]1CCCN(S(=O)(=O)N2CC(F)(F)C2)C1 [Example 703, 1-(((3S)-1-((3,3-difluoro-1-azetidinyl)sulfonyl)-3-piperidinyl)carbonyl)-N-(4-(trifluoromethyl)benzyl)-D-prolinamide] — within 1.5-fold, 5.723 µM
- CS(=O)(=O)N1CC(c2cccc(C(=O)N3CCC[C@@H]3C(=O)N[C@@H](c3ccc(C(F)(F)F)cc3F)C3CC3)c2)C1 [Example 704] — within 1.5-fold, 5.725 µM
- N#CC1CN(S(=O)(=O)N2CCC[C@H](C(=O)N3CCC[C@@H]3C(=O)NC3Cc4ccccc43)C2)C1 (stereo partly drawn) [Example 705, (2R)-N-(bicyclo[4.2.0]octa-1 (6),2,4-trien-7-yl)-1-((S)-1-((3-cyanoazetidin-1-yl)sulfonyl)piperidine-3-carbonyl)pyrrolidine-2-carboxamide] — within 1.5-fold, 5.7373 µM
- CS(=O)(=O)c1cccc(C(=O)N2C[C@@H](F)C[C@@H]2C(=O)N[C@@H](c2ccc(C(F)(F)F)cc2F)C2(F)COC2)c1 [Example 706, (4S)-4-fluoro-N-((S)-(3-fluoro-3-oxetanyl)(2-fluoro-4-(trifluoromethyl)phenyl)methyl)-1-(3-(methylsulfonyl)benzoyl)-D-prolinamide] — within 1.5-fold, 5.7465 µM
- O=C(NCc1ccc(C(F)(F)F)cc1)[C@H]1CCCN1C(=O)[C@H]1CCCN(S(=O)(=O)N2CC(c3ccccn3)C2)C1 [Example 707, 1-(((3S)-1-((3-(2-pyridinyl)-1-azetidinyl)sulfonyl)-3-piperidinyl)carbonyl)-N-(4-(trifluoromethyl)benzyl)-D-prolinamide] — within 1.5-fold, 5.821 µM
- CCOc1ccc(CNC(=O)[C@H]2CCCN2C(=O)[C@H]2CCCN(S(=O)(=O)N3CC(C#N)C3)C2)cc1F [Example 708, 1-(((3S)-1-((3-cyano-1-azetidinyl)sulfonyl)-3-piperidinyl)carbonyl)-N-(4-ethoxy-3-fluorobenzyl)-D-prolinamide] — within 1.5-fold, 5.8345 µM
- O=C(NC1CN(S(=O)(=O)N2CCC[C@H](C(=O)N3CCC[C@@H]3C(=O)NCc3ccc(C(F)(F)F)cc3)C2)C1)C1CC1 [Example 710, 1-(((3S)-1-((3-((cyclopropylcarbonyl)amino)-1-azetidinyl)sulfonyl)-3-piperidinyl)carbonyl)-N-(4-(trifluoromethyl)benzyl)-D-prolinamide] — within 1.5-fold, 5.887 µM
- CN(C)C(=O)C1CN(S(=O)(=O)N2CCC[C@H](C(=O)N3CCC[C@@H]3C(=O)NCc3ccc(C(F)(F)F)cc3)C2)C1 [Example 712, (R)-1-((S)-1-((3-(dimethylcarbamoyl)azetidin-1-yl)sulfonyl)piperidine-3-carbonyl)-N-(4-(trifluoromethyl)benzyl)pyrrolidine-2-carboxamide] — within 1.5-fold, 5.9215 µM
- O=C(N[C@@H](c1cc(F)c(Cl)cc1F)C1CC1)[C@H]1C[C@H]2C[C@H]2N1C(=O)c1cc(C2CC2)ccn1 [Example 713, (1R,3R,5R)-N-((R)-(4-chloro-2,5-difluorophenyl)(cyclopropyl)methyl)-2-((4-cyclopropyl-2-pyridinyl)carbonyl)-2-azabicyclo[3.1.0]hexane-3-carboxamide] — within 1.5-fold, 6.039 µM
- Cc1ccc(C(F)(F)F)cc1CNC(=O)[C@H]1CCCN1C(=O)[C@H]1CCCN(S(=O)(=O)N2CC(C#N)C2)C1 [Example 714, 1-(((3S)-1-((3-cyano-1-azetidinyl)sulfonyl)-3-piperidinyl)carbonyl)-N-(2-methyl-5-(trifluoromethyl)benzyl)-D-prolinamide] — within 1.5-fold, 6.0545 µM
- Cc1cccc(C(=O)N2CCC[C@@H]2C(=O)N[C@@H](c2ccc(C(F)(F)F)cc2F)C2CC2)c1 [Example 715, N-((R)-cyclopropyl(2-fluoro-4-(trifluoromethyl)phenyl)methyl)-1-(3-methylbenzoyl)-D-prolinamide] — within 1.5-fold, 6.057 µM
- Cc1ccc(S(N)(=O)=O)cc1C(=O)N1CCC[C@@H]1C(=O)N[C@@H](c1ccc(C(F)(F)F)cc1F)C1CC1 [Example 716, N-((R)-cyclopropyl(2-fluoro-4-(trifluoromethyl)phenyl)methyl)-1-(2-methyl-5-sulfamoylbenzoyl)-D-prolinamide] — within 1.5-fold, 6.168 µM
- Cc1cc(C(=O)N2[C@@H](C(=O)N[C@@H](c3cc(F)c(C(F)(F)F)cc3F)C3CC3)C[C@H]3C[C@H]32)ccn1 [Example 717, (1R,3R,5R)-N-((R)-cyclopropyl(2,5-difluoro-4-(trifluoromethyl)phenyl)methyl)-2-((2-methyl-4-pyridinyl)carbonyl)-2-azabicyclo[3.1.0]hexane-3-carboxamide] — within 1.5-fold, 6.259 µM
- O=C(N[C@@H](c1ccc(C(F)(F)F)cc1F)C1COC1)[C@H]1C[C@H]2C[C@H]2N1C(=O)c1cc(C2CC2)ccn1 [Example 718, (1R,3R,5R)-2-((4-cyclopropyl-2-pyridinyl)carbonyl)-N-((R)-(2-fluoro-4-(trifluoromethyl)phenyl)(3-oxetanyl)methyl)-2-azabicyclo[3.1.0]hexane-3-carboxamide] — within 1.5-fold, 6.2625 µM
- N#CC1CN(S(=O)(=O)N2CCC[C@H](C(=O)N3CCC[C@@H]3C(=O)NCc3c(F)cccc3Cl)C2)C1 [Example 719, N-(2-chloro-6-fluorobenzyl)-1-(((3S)-1-((3-cyano-1-azetidinyl)sulfonyl)-3-piperidinyl)carbonyl)-D-prolinamide] — within 1.5-fold, 6.2628 µM
- CS(=O)(=O)c1cccc(C(=O)N2CCC[C@@H]2C(=O)N[C@@H](c2ccc(C(F)F)cc2F)C2CC2)c1 [Example 721, N-((R)-cyclopropyl(4-(difluoromethyl)-2-fluorophenyl)methyl)-1-(3-(methylsulfonyl)benzoyl)-D-prolinamide] — within 1.5-fold, 6.2885 µM
- C[C@H](C(=O)NCc1ccnc(C(F)(F)F)c1)N(C)C(=O)c1cccc(S(=O)(=O)N2CC(C#N)C2)c1 [Example 722, 3-((3-cyano-1-azetidinyl)sulfonyl)-N-methyl-N-((1R)-1-methyl-2-oxo-2-(((2-(trifluoromethyl)-4-pyridinyl)methyl)amino)ethyl)benzamide] — within 1.5-fold, 6.3585 µM
- O=C(N[C@@H](c1cc(F)c(Cl)cc1F)C1COC1)[C@H]1C[C@H](O)CN1C(=O)c1ccnc(C(F)(F)F)c1 [Example 723, (4S)-N-((R)-(4-chloro-2,5-difluorophenyl)(3-oxetanyl)methyl)-4-hydroxy-1-((2-(trifluoromethyl)-4-pyridinyl)carbonyl)-D-prolinamide] — within 1.5-fold, 6.4425 µM
- CS(=O)(=O)N1CCN[C@H](C(=O)N2[C@@H](C(=O)N[C@@H](c3cc(F)c(Cl)cc3F)C3CC3)C[C@H]3C[C@H]32)C1 [Example 724, (1R,3R,5R)-N-((R)-(4-chloro-2,5-difluorophenyl)(cyclopropyl)methyl)-2-(((2S)-4-(methylsulfonyl)-2-piperazinyl)carbonyl)-2-azabicyclo[3.1.0]hexane-3-carboxamide] — within 1.5-fold, 6.475 µM
- N#CC1CN(S(=O)(=O)c2cccc(C(=O)N3CCC[C@@H]3C(=O)NCc3ncc(C(F)(F)F)cn3)c2)C1 [Example 725, 1-((3-((3-cyano-1-azetidinyl)sulfonyl)phenyl)carbonyl)-N-((5-(trifluoromethyl)-2-pyrimidinyl)methyl)-D-prolinamide] — within 1.5-fold, 6.507 µM
- O=C(N[C@@H](c1ccc(C(F)(F)F)cc1F)C1CC1)[C@H]1CCCN1C(=O)c1cccc(-c2ccsc2)c1 [Example 726, N-((R)-cyclopropyl(2-fluoro-4-(trifluoromethyl)phenyl)methyl)-1-(3-(3-thiophenyl)benzoyl)-D-prolinamide] — within 1.5-fold, 6.547 µM
- Cc1ccc(C(=O)N2[C@@H](C(=O)N[C@@H](c3ccc(C(F)(F)F)cc3F)C3COC3)C[C@H]3C[C@H]32)cc1S(C)(=O)=O [Example 727, (1R,3R,5R)-N-((R)-(2-fluoro-4-(trifluoromethyl)phenyl)(3-oxetanyl)methyl)-2-(4-methyl-3-(methylsulfonyl)benzoyl)-2-azabicyclo[3.1.0]hexane-3-carboxamide] — within 1.5-fold, 6.61 µM
- CS(=O)(=O)c1cccc(C(=O)N2[C@@H](C(=O)N[C@@H](c3ccc(F)cc3F)C3COC3)C[C@H]3C[C@H]32)c1 [Example 728, (1R,3R,5R)-N-((R)-(2,4-difluorophenyl)(3-oxetanyl)methyl)-2-(3-(methylsulfonyl)benzoyl)-2-azabicyclo[3.1.0]hexane-3-carboxamide] — within 1.5-fold, 6.701 µM
- CC(NC(=O)[C@H]1CCCN1C(=O)[C@H]1CCCN(S(=O)(=O)N2CC(C#N)C2)C1)c1ccc(F)cc1 (stereo partly drawn) [Example 729, 1-(((3S)-1-((3-cyano-1-azetidinyl)sulfonyl)-3-piperidinyl)carbonyl)-N-((1R)-1-(4-fluorophenyl)ethyl)-D-prolinamide,1-(((3S)-1-((3-cyano-1-azetidinyl)sulfonyl)-3-piperidinyl)carbonyl)-N-((1S)-1-(4-fluorophenyl)ethyl)-D-prolinamide] — within 1.5-fold, 6.7185 µM
